Reference: patent US20250049798A1, “WEE1 PROTEIN KINASE DEGRADATION AGENT AND USE THEREOF” (HANGZHOU GLUBIO PHARMACEUTICAL CO. LTD., priority 2021, published 2025)
Where two headings read alike, the source gives them in different places.

What was measured:
NCI-H1048 cells = assay: NCI-H1048 cell proliferation assay (CTG assay); assay type: cell-based; details: Homo sapiens, 120 hours, read-out: CTG cellular assay_H1048: IC50
Protocol: NCI-H1048 Cell Proliferation Assay (CTG Assay) The following is an example of an assay that can be used to determine the anti-proliferative activity of Wee1 PROTACs in a small cell lung cancer cell line, NCI-H1048 (ATCC Cat #CRL-5853). This cell line was cultured in RPMI-1640 medium supplemented with 10% FBS. About 1,200 NCI-H1048 cells in 50 μL of culture medium were seeded into a 384-well plate (Cat #3764, Corning), pre-spotted with compounds using the Echo 650 liquid handler (Beckman). The dose-response-curve (DRC) typically has 10-points with a highest concentration at 10 μM, and half-log diluted to as low as 0.316 nM, plus a DMSO control. Assay plates were incubated at 37° C. with 5% CO2 for 120 hours. After that, 20 μL of the CellTiter-Glo (CTG) Luminescent Cell Viability Assay Reagent (Cat #G7573, Promega) was added to each well and incubated at room temperature for 30 minutes. Luminescence was then measured with Pherastar microplate reader (BMG Labtech). All percentage of cell growth inhibition curves were processed using Collaborative Drug Discovery Vault.
Cell viability reads in compound-treated wells were normalized to that of DMSO control and expressed as Percent of Control (PoC, y). A four Parameter Logistic Model was used to determine the compound's EC50 and DC50, using the following equation: […]

HiBiT tagged Wee1 = HiBiT tagged Wee1 (Homo sapiens, UniProt P30291); assay: Wee1 protein degradation assay (HiBiT assay); assay type: cell-based; details: for Dmax: maximum percentage of Wee1 degradation, read-out: HiBiT Wee1: Dmax
[1] = engineered HT-1080 cells, 20 hours

HiBiT tagged Wee1, sequence (P30291 whole entry): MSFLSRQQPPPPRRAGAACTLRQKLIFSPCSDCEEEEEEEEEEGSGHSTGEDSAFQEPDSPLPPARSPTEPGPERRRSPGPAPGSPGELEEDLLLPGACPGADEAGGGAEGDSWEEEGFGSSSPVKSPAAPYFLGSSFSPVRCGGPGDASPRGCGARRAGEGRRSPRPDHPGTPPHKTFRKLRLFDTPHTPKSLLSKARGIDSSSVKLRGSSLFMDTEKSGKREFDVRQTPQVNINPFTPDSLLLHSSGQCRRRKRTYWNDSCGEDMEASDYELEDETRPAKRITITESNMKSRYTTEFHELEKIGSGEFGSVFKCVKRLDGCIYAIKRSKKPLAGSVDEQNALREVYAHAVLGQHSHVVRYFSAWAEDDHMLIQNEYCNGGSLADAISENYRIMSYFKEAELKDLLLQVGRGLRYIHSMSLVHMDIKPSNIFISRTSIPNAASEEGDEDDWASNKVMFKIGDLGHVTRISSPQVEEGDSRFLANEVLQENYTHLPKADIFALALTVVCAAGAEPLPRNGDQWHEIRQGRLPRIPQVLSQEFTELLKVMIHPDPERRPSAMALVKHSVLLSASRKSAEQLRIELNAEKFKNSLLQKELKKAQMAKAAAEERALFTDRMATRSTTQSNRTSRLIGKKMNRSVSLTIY

IC50 (NCI-H1048 cells) | DC50 (HiBiT tagged Wee1; [1]) | Dmax (HiBiT tagged Wee1; [1]) | SMILES | Dmax (HiBiT tagged Wee1; HT-1080, […])
≤ 25 nM | < 100 nM | 50 to 75% | C=CCn1c(=O)c2cnc(Nc3ccc(N4CCN(CCCCc5cccc6c5n(C)c(=O)n6C5CCC(=O)NC5=O)CC4)cc3)nc2n1-c1cccc(C(C)(C)O)n1 (stereo not drawn) [Compound 51] | –
≤ 25 nM | < 100 nM | > 75% | C=CCn1c(=O)c2cnc(Nc3ccc(N4CCN(CC5CCN(c6ncc(NC7CCC(=O)NC7=O)cc6F)CC5)CC4)cc3)nc2n1-c1ccc2c(n1)[C@@](O)(CC)CC2 (stereo partly drawn) [Compound 180] | –
≤ 25 nM | < 100 nM | 50 to 75% | C=CCn1c(=O)c2cnc(Nc3ccc(N4CCN(CC5CCN(c6ccc7c(C8CCC(=O)NC8=O)nn(C)c7c6)CC5)CC4)cc3)nc2n1-c1cccc(C(C)(C)O)n1 (stereo not drawn) [Compound 76] | –
≤ 25 nM | < 100 nM | > 75% | C=CCn1c(=O)c2cnc(Nc3ccc(N4CCN(CC5CCN(c6ccc(NC7CCC(=O)NC7=O)cc6F)CC5)CC4)cc3)nc2n1-c1ccc2c(n1)[C@@](O)(CC)CC2 (single isomer, unassigned) [Compound 150-A] | –
25 to 100 nM | < 100 nM | 50 to 75% | O=C1CCC(N2C(=O)c3ccc(N4CCC(CN5CCN(c6ccc(Nc7ncc8c(=O)n(-c9c(Cl)cccc9Cl)c9nccn9c8n7)cc6)CC5)CC4)cc3C2=O)C(=O)N1 (stereo not drawn) [Compound 3] | –
≤ 25 nM | < 100 nM | > 75% | C=CCn1c(=O)c2cnc(Nc3ccc(N4CCN(CC5CCN(c6cc7c(cc6F)c(N6CCC(=O)NC6=O)nn7C)CC5)CC4)cc3)nc2n1-c1ccc2c(n1)[C@](C)(O)CC2 [Compound 196] | –
25 to 100 nM | < 100 nM | 50 to 75% | C=CCn1c(=O)c2cnc(Nc3ccc(N4CCN(CCCc5ccc6c(c5)n(C)c(=O)n6C5CCC(=O)NC5=O)CC4)cc3)nc2n1-c1cccc(C(C)(C)O)n1 (stereo not drawn) [Compound 46] | –
≤ 25 nM | < 100 nM | > 75% | C=CCn1c(=O)c2cnc(Nc3ccc(N4CCC(CN5CCN(c6cccc7c(C8CCC(=O)NC8=O)nn(C)c67)CC5)CC4)cc3)nc2n1-c1cccc(C(C)(C)O)n1 (stereo not drawn) [Compound 144] | –
≤ 25 nM | < 100 nM | > 75% | C=CCn1c(=O)c2cnc(Nc3ccc(N4CCC(N5CCC(c6ccc(NC7CCC(=O)NC7=O)cc6)CC5)CC4)cc3)nc2n1-c1cccc(C(C)(C)O)n1 (stereo not drawn) [Compound 70] | –
≤ 25 nM | < 100 nM | > 75% | C=CCn1c(=O)c2cnc(Nc3ccc(N4CCN(CC5CCN(c6ccc(NC7CCC(=O)NC7=O)cc6F)CC5)[C@@H](C)C4)cc3)nc2n1-c1ccc2c(n1)[C@@](O)(CC)CC2 (stereo partly drawn) [Compound 162] | –
≤ 25 nM | < 100 nM | > 75% | C=CCn1c(=O)c2cnc(Nc3ccc(N4CCN(CC5CCN(c6ncc(NC7CCC(=O)NC7=O)cc6F)CC5)[C@@H](C)C4)cc3)nc2n1-c1ccc2c(n1)[C@@](O)(CC)CC2 (stereo partly drawn) [Compound 192] | –
≤ 25 nM | < 100 nM | > 75% | C=CCn1c(=O)c2cnc(Nc3ccc(N4CCC(CN5CCN(c6ccc(NC7CCC(=O)NC7=O)cc6)CC5)CC4)cc3)nc2n1-c1cccc(C(C)(C)O)n1 (stereo not drawn) [Compound 92] | –
≤ 25 nM | < 100 nM | 50 to 75% | C=CCn1c(=O)c2cnc(Nc3ccc(C4CCN(CC5CCN(c6ccc(NC7CCC(=O)NC7=O)cc6F)CC5)CC4)cc3)nc2n1-c1ccc2c(n1)[C@@](O)(CC)CC2 (stereo partly drawn) [Compound 109] | –
≤ 25 nM | < 100 nM | > 75% | C=CCn1c(=O)c2cnc(Nc3ccc(N4CCN(CC5CCN(c6ccc(NC7CCC(=O)NC7=O)cc6F)CC5)CC4)nc3)nc2n1-c1ccc2c(n1)[C@@](O)(CC)CC2 (stereo partly drawn) [Compound 187] | –
≤ 25 nM | < 100 nM | > 75% | C=CCn1c(=O)c2cnc(Nc3ccc(N4CCC(CN5CCN(c6ccc(NC7CCC(=O)NC7=O)cc6F)CC5)CC4)cc3)nc2n1-c1ccc2c(n1)[C@@](O)(CC)CC2 (stereo partly drawn) [Compound 119] | –
> 100 nM | > 1000 nM | < 50% | Cc1cc(Nc2ncc3c(n2)N(C)CN(c2c(Cl)cccc2Cl)C3=O)ccc1C1CCN(CC2CN(c3ccc4c(c3)C(=O)N(C3CCC(=O)NC3=O)C4=O)C2)CC1 (stereo not drawn) [Compound 18] | –
≤ 25 nM | < 100 nM | > 75% | C=CCn1c(=O)c2cnc(Nc3ccc(C4CCN(CN5CCN(c6ccc7c(N8CCC(=O)NC8=O)nn(C)c7c6)CC5)CC4)cc3)nc2n1-c1cccc(C(C)(C)O)n1 [Compound 89] | –
≤ 25 nM | < 100 nM | > 75% | C[C@]1(O)CC/C=C\Cn2c(=O)c3cnc(Nc4ccc(N5CCN(CC6CCN(c7ccc(NC8CCC(=O)NC8=O)cc7F)CC6)CC5)cc4)nc3n2-c2cccc1n2 (single isomer, unassigned) [Compound 141] | –
≤ 25 nM | < 100 nM | > 75% | C=CCn1c(=O)c2cnc(Nc3ccc(N4CCN(CC5CCN(c6ccc(NC7CCC(=O)NC7=O)cc6F)CC5)CC4)cc3)nc2n1-c1ccc2c(n1)[C@](C)(O)CC2 (single isomer, unassigned) [Compound 152-B] | –
≤ 25 nM | < 100 nM | > 75% | C=CCn1c(=O)c2cnc(Nc3ccc(N4CCN(CC5CCN(c6ncc(NC7CCC(=O)NC7=O)cc6Cl)CC5)CC4)cc3)nc2n1-c1ccc2c(n1)[C@@](O)(CC)CC2 (stereo partly drawn) [Compound 181] | –
≤ 25 nM | < 100 nM | > 75% | C=CCn1c(=O)c2cnc(Nc3ccc(N4CCN(CC5CCN(c6ccc(NC7CCC(=O)NC7=O)cc6Cl)CC5)CC4)cc3)nc2n1-c1ccc2c(n1)[C@@](O)(CC)CC2 (stereo partly drawn) [Compound 176] | –
25 to 100 nM | < 100 nM | 50 to 75% | C=CCn1c(=O)c2cnc(Nc3ccc(C4CCN(CC5CCN(c6ccc7c(c6)C(=O)N(C6CCC(=O)NC6=O)C7=O)CC5)CC4)cc3)nc2n1-c1cccc(C(C)(C)O)n1 (stereo not drawn) [Compound 21] | –
≤ 25 nM | < 100 nM | > 75% | C=CCn1c(=O)c2cnc(Nc3ccc(N4CCC(CN(C)C5CCN(c6ccc(NC7CCC(=O)NC7=O)cc6F)CC5)CC4)cc3)nc2n1-c1cccc(C(C)(C)O)n1 (stereo not drawn) [Compound 91] | –
≤ 25 nM | < 100 nM | 50 to 75% | C=CCn1c(=O)c2cnc(Nc3ccc(C4CCN(CC5CCN(c6ccc(NC7CCC(=O)NC7=O)cc6)CC5)CC4)cc3)nc2n1-c1cccc(C(C)(C)O)n1 (stereo not drawn) [Compound 85] | –
≤ 25 nM | < 100 nM | > 75% | C=CCn1c(=O)c2cnc(Nc3ccc(N4CCC(CN5CCC(c6ccc7c(N8CCC(=O)NC8=O)nn(C)c7c6)CC5)CC4)cc3)nc2n1-c1cccc(C(C)(C)O)n1 [Compound 95] | –
≤ 25 nM | < 100 nM | > 75% | C=CCn1c(=O)c2cnc(Nc3ccc(N4CCN(C5CCN(c6ncc(NC7CCC(=O)NC7=O)cc6F)CC5)CC4)cc3)nc2n1-c1ccc2c(n1)[C@@](O)(CC)CC2 (stereo partly drawn) [Compound 182] | –
≤ 25 nM | < 100 nM | > 75% | C=CCn1c(=O)c2cnc(Nc3ccc(N4CCN(CC5CCN(c6cc7c(cc6F)c(N6CCC(=O)NC6=O)nn7C)CC5)CC4)nc3)nc2n1-c1ccc2c(n1)[C@](C)(O)CC2 [Compound 197] | –

SMILES | IC50 (NCI-H1048 cells) | DC50 (HiBiT tagged Wee1; [1]) | Dmax (HiBiT tagged Wee1; [1]) | Dmax (HiBiT tagged Wee1; HT-1080, […])
CN1CN(c2c(Cl)cccc2Cl)C(=O)c2cnc(Nc3ccc(N4CCN(CCCNc5cccc6c5C(=O)N(C5CCC(=O)NC5=O)C6=O)CC4)cc3)nc21 (stereo not drawn) [Compound 17] | > 100 nM | > 1000 nM | – | < 50%
